Source: patent publication US9000022B2 (Exelixis Patent Company LLC, priority 2005, dated 2015)

Test system: LXRα and/or LXRβ
Assay: Co-transfection assay (LXRE luciferase reporter, CV-1 cells)
Format: cell-based, human
Conditions: tested as described in Example 33; IC50 or EC50 for LXRα and/or LXRβ, isoform not specified; read-out: activity (IC50 or EC50 for LXR)
In short: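 CV-1 cells transiently co-transfected with full-length human LXRα or LXRβ plus RXRα, an LXRE×1-Tk-luciferase reporter and a β-galactosidase control. Compounds incubated 20 h at 37 °C (≤1% DMSO; screen at 10 μM final); luciferase read after lysis. EC50/IC50 from 8-point half-log curves (4 wells per point, ≥3 experiments); efficacy relative to a reference agonist high control and DMSO.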

SMILES | IC50 or EC50 (potency, activation or inhibition)
FC(F)(F)c1cn(-c2ccc(Br)cn2)c(-c2ccccc2C(F)(F)F)n1 [Example 368, 5-bromo-2-{4-(trifluoromethyl)-2-[2-(trifluoro-methyl)phenyl]-1H-imidazol-1-yl}pyridine] | 1000 to 10000 nM
CS(=O)(=O)c1cccc(-c2ccc(-n3cc(C(F)(F)F)nc3-c3ccccc3C(F)(F)F)nc2)c1 [Example 369, 5-[3-(methylsulfonyl)phenyl]-2-{4-(trifluoromethyl)-2-[2-(trifluoro-methyl)phenyl]-1H-imidazol-1-yl}pyridine] | < 1000 nM
CS(=O)(=O)c1cccc(-c2ccc(-n3cc(C(F)(F)F)nc3-c3ccccc3Cl)nc2)c1 [Example 370, 2-[2-(2-chlorophenyl)-4-(trifluoro-methyl)-1H-imidazol-1-yl]-5-[3-(methylsulfonyl)phenyl]pyridine] | < 1000 nM
CC(C)S(=O)(=O)c1cccc(-c2ccc(-n3cc(C(F)(F)F)nc3-c3ccccc3C(F)(F)F)nc2)c1 [Example 372, 5-{3-[(1-methylethyl)sulfonyl]phenyl}-2-{4-(trifluoromethyl)-2-[2-(trifluoro-methyl)phenyl]-1H-imidazol-1-yl}pyridine] | < 1000 nM
CC(C)S(=O)(=O)c1cccc(-c2ccc(-n3cc(C(F)(F)F)nc3-c3ccccc3C(F)(F)F)cc2)c1 [Example 373, 1-{3′-[(1-methylethyl)sulfonyl]biphenyl-4-yl}-4-(trifluoromethyl)-2-[2-(trifluoromethyl)phenyl]-1H-imidazole] | < 1000 nM
CC(C)(O)c1cn(-c2ccc(Br)cc2)c(-c2ccccc2C(F)(F)F)n1 [Example 374, 2-{1-(4-bromophenyl)-2-[2-(trifluoromethyl)phenyl]-1H-imidazol-4-yl}propan-2-ol] | 1000 to 10000 nM
CS(=O)(=O)Nc1cccc(-c2ccc(-n3cc(C(F)(F)F)nc3-c3ccccc3C(F)(F)F)cc2)c1 [Example 375, N-(4′-{4-(trifluoromethyl)-2-[2-(trifluoromethyl)phenyl]-1H-imidazol-1-yl}biphenyl-3-yl)methane-sulfonamide] | < 1000 nM
CCOC(=O)c1cn(-c2ccc(-c3cccc(S(C)(=O)=O)c3)cc2)c(-c2ccccc2)n1 [Example 376, ethyl 1-[3′-(methylsulfonyl)biphenyl-4-yl]-2-phenyl-1H-imidazole-4-carboxylate] | < 1000 nM
CCOC(=O)c1cn(-c2ccc(Br)cc2)c(-c2ccccc2Cl)n1 [Example 377, ethyl 1-(4-bromophenyl)-2-(2-chlorophenyl)-1H-imidazole-4-carboxylate] | 1000 to 10000 nM
CC(C)(O)c1cn(-c2ccc(-c3cccc(S(C)(=O)=O)c3)cc2)c(-c2ccccc2)n1 [Example 378, 2-{1-[3′-(methylsulfonyl)biphenyl-4-yl]-2-phenyl-1H-imidazole-4-yl}propan-2-ol] | 1000 to 10000 nM
CC(C)(O)c1cn(-c2ccc(-c3cccc(S(C)(=O)=O)c3)cc2)c(-c2ccccc2Cl)n1 [Example 379, 2-{2-(2-chlorophenyl)-1-[3′-(methylsulfonyl)biphenyl-4-yl]-1H-imidazol-4-yl}propan-2-ol] | < 1000 nM
CC(C)(O)c1cn(-c2ccc(-c3cccc(S(C)(=O)=O)c3)cc2)c(-c2ccccc2F)n1 [Example 380, 2-{2-(2-fluorophenyl)-1-[3′-(methylsulfonyl)biphenyl-4-yl]-1H-imidazol-4-yl}propan-2-ol] | 1000 to 10000 nM
CC(=O)c1cn(-c2ccc(-c3cccc(S(C)(=O)=O)c3)cc2)c(-c2ccccc2F)n1 [Example 381, 1-{2-(2-fluorophenyl)-1-[3′-(methylsulfonyl)biphenyl-4-yl]-1H-imidazol-4-yl}ethanone] | 1000 to 10000 nM
CC(C)(O)c1cn(-c2ccc(-c3cccc(S(C)(=O)=O)c3)cc2)c(-c2cccc(Cl)c2Cl)n1 [Example 382, 2-{2-(2,3-dichlorophenyl)-1-[3′-(methylsulfonyl)biphenyl-4-yl]-1H-imidazol-4-yl}propan-2-ol] | < 1000 nM
